Patent US20060280725A1, “Compositions and methods of treating and diagnosing hepatoma” (priority 2003, published 2006)
Where two headings read alike, the source gives them in different places.

Assays:
System A & N isoforms = settings: read-out: deduced Km values for glutamine; cited from earlier work
THLE-5B = assay: Glutamine transport assay (inhibition and kinetic analysis); format: cell-based, human
Description: FIG. 1. Amino acid inhibition analysis of glutamine transport in the Hep3B, PLC/PRF/5 and Focus human hepatoma cell lines and the THLE-5B SV40-immortalized human liver epithelial cell line. The Na^+-dependent transport of 50 μM L-glutamine was measured as described in the Methods section in the absence or presence of the indicated unlabeled amino acids at 5 mM. Testing of cysteine (CYSH) required the presence of 5 mM dithiothreitol (DTT) as a reducing agent, so DTT was tested alone as well. Arrows indicate the relative transport rates for 50 μM L-glutamine in primary human adult (solid arrow) and fetal (open arrow) hepatocytes. The results represent the average±SD of four separate determinations (*p<0.010 versus control). The Eadie-Hofstee plots of the kinetic analyses are shown as an inset in each figure, with the dashed lines representing the resolved high and low affinity components of the composite data (solid line). The derived values of the kinetic constants for each component are given in the Results section.
(§1) Glutamine Transport Assays. Measurement of initial-rate glutamine uptake was carried out via the cluster-tray method originally described by Gazzola (21) as reported previously (6, 9). Briefly, after trypsinization hepatoma cells were plated at a density of 1×10^5 cells/well in 24-well culture plates (Costar Corp., Cambridge, Mass.) and allowed to grow to >80% confluence, typically one to two days later. For initial-rate measurements, the radiotracer utilized was L-[G-^3H] glutamine (Amersham Corp., Arlington Heights, Ill.) at 4 μCi/ml, in the presence of unlabeled L-glutamine at 50 μM. For kinetic studies, the amount of unlabeled glutamine in the transport buffer varied from 10 μM to 10 mM. All transport measurements were carried out at 37° C. and were terminated after 30 s by three rapid washes with an ice-cold phosphate-buffered saline solution. Intracellular radiolabeled glutamine was extracted with 0.2 ml/well of 0.2% sodium dodecyl sulfate (SDS) and 0.2 N NaOH; after 1 h, 0.1 ml of the lysate was neutralized with 10 μl of 2 N HCl and subjected to scintillation spectrophotometry in a Packard TopCount™ (Packard Instruments, Meriden, Conn.). The remaining lysate was utilized for the determination of cellular protein by the bicinchoninic acid (BCA) method (Pierce Chemical Co., Rockford, Ill.). Rates of glutamine transport were calculated from the cpm per sample, the specific activity of the uptake mix (in cpm/nmol) and normalized to cellular protein content in a Microsoft Excel® spreadsheet program. Transport values obtained in the absence of extracellular Na^+ (diffusion and Na^+-independent uptake) were subtracted from those in the presence of Na^+ (total uptake) to yield Na^+-dependent rates which are reported in units of nmol•mg^−1 protein•30 s^−1. All transport values depicted are the average±standard deviation of four separate determinations. Kinetic analysis of Eadie-Hofstee linearized transport data (v vs. v/[L-GLN]) was performed by regression analysis (Cricket Graph®, Computer Associates, Islandia, N.Y.). Nonlinear regression analysis was performed with DataDesk (Data Description, Inc. Ithaca, N.Y.) and Excel for two component Michaelis-Menten kinetics: v=((Vmax1×[S])/(Km1+[S])+(Vmax2×[S])/(Km2+[S])).
It should be noted that extensive depletion of intracellular amino acid pools were not performed prior to transport measurements in these studies because we sought to assess glutamine uptake under more physiological conditions. […]

Huh-7 = assay: Glutamine transport assay (initial-rate uptake, kinetic analysis); format: cell-based, human
Description: as §1
(§2) Therefore, two component nonlinear regression analyses were performed on the Na^+-dependent transport kinetic data, where they were adequately resolved into high and low affinity components in all cell lines under study. The results are graphically depicted in FIG. 1 as insets. […] Possibilities for each cell line will be offered discussion based on the molecular analyses described below.

Focus = assay: as above; format: cell-based, human
Description: as §1, §2

PLC/PRF/5 = assay: as above; format: cell-based, human
Description: as §1, §2

Hep3B = assay: as above; format: cell-based, human
Description: as §1, §2

[1] = read-out: Km, high affinity component
[2] = read-out: Km, low affinity component
[3] = read-out: Km, low affinity system
[4] = read-out: Km, high affinity system

SMILES: NC(=O)CC[C@H](N)C(=O)O [glutamine, L-glutamine]
- Km (System A & N isoforms): 1000 to 3000 µM
- Vmax, high affinity component (THLE-5B): 30.8 nmol•mg^−1 protein•30 s^−1
- Vmax, low affinity component (THLE-5B): 32.6 nmol•mg^−1 protein•30 s^−1
- Km (THLE-5B; [1]): 135 µM
- Km (THLE-5B; [2]): 1300 µM
- Vmax, high affinity component (Huh-7): 7.3 nmol•mg^−1 protein•30 s^−1
- Vmax, low affinity component (Huh-7): 11.7 nmol•mg^−1 protein•30 s^−1
- Km (Huh-7; [1]): 50 µM
- Km (Huh-7; [2]): 861 µM
- Vmax, high affinity component (Focus): 2.2 nmol•mg^−1 protein•30 s^−1
- Vmax, low affinity system (Focus): 2.7 nmol•mg^−1 protein•30 s^−1
- Km (Focus; [1]): 122 µM
- Km (Focus; [3]): 1200 µM
- Vmax, high affinity system (PLC/PRF/5): 0.82 nmol•mg^−1 protein•30 s^−1
- Vmax, low affinity system (PLC/PRF/5): 3.9 nmol•mg^−1 protein•30 s^−1
- Km (PLC/PRF/5; [4]): 23 µM
- Km (PLC/PRF/5; [3]): 775 µM
- Vmax, high affinity system (Hep3B): 3.0 nmol•mg^−1 protein•30 s^−1
- Vmax, low affinity system (Hep3B): 4.5 nmol•mg^−1 protein•30 s^−1
- Km (Hep3B; Na+-dependent glutamine transport, read-out: Km, low affinity system): 1000 µM
- Km (Hep3B; [4]): 90 µM
